Assay results from ChEMBL document CHEMBL1147101, “Development and persistence of antimicrobial resistance in Pseudomonas aeruginosa: a longitudinal observation in mechanically ventilated patients” (Antimicrob Agents Chemother, 2007).
Calls of active or inactive are those of the source. The calls are words filed in the database; no cut-off is given here.

Columns and labels:
Type in all cases: functional, organism-based
Details in all cases: Trachea
[1] = test system: Pseudomonas aeruginosa; experiment: Antimicrobial activity against Pseudomonas aeruginosa 12B2 tracheal isolates from mechanically ventilated chronic respiratory insufficiency patient
[2] = test system: Pseudomonas aeruginosa; experiment: Antimicrobial activity against Pseudomonas aeruginosa 8A12 tracheal isolates from mechanically ventilated chronic respiratory insufficiency patient
[3] = test system: Pseudomonas aeruginosa; experiment: Antimicrobial activity against Pseudomonas aeruginosa 10B1 tracheal isolates from mechanically ventilated chronic respiratory insufficiency patient
[4] = test system: Pseudomonas aeruginosa; experiment: Antimicrobial activity against Pseudomonas aeruginosa 2A7 tracheal isolates from mechanically ventilated tuberculosis patient
[5] = test system: Pseudomonas aeruginosa; experiment: Antimicrobial activity against Pseudomonas aeruginosa 12A3 tracheal isolates from mechanically ventilated chronic respiratory insufficiency patient
[6] = test system: Pseudomonas aeruginosa; experiment: Antimicrobial activity against Pseudomonas aeruginosa 5H6 tracheal isolates from mechanically ventilated chronic respiratory insufficiency patient
[7] = test system: Pseudomonas aeruginosa; experiment: Antimicrobial activity against Pseudomonas aeruginosa 9B5 tracheal isolates from mechanically ventilated chronic respiratory insufficiency patient
[8] = test system: Pseudomonas aeruginosa; experiment: Antimicrobial activity against Pseudomonas aeruginosa 24G1 tracheal isolates from mechanically ventilated chronic respiratory insufficiency patient
[9] = test system: Pseudomonas aeruginosa; experiment: Antimicrobial activity against Pseudomonas aeruginosa 8C4 tracheal isolates from mechanically ventilated chronic respiratory insufficiency patient
[10] = test system: Pseudomonas aeruginosa; experiment: Antimicrobial activity against Pseudomonas aeruginosa 3E2 tracheal isolates from mechanically ventilated chronic respiratory insufficiency patient
[11] = test system: Pseudomonas aeruginosa; experiment: Antimicrobial activity against Pseudomonas aeruginosa 9A10 tracheal isolates from mechanically ventilated chronic respiratory insufficiency patient
[12] = test system: Pseudomonas aeruginosa; experiment: Antimicrobial activity against Pseudomonas aeruginosa 22E3 tracheal isolates from mechanically ventilated chronic respiratory insufficiency patient
[13] = test system: Pseudomonas aeruginosa; experiment: Antimicrobial activity against Pseudomonas aeruginosa 13E1 tracheal isolates from mechanically ventilated chronic respiratory insufficiency patient
[14] = test system: Pseudomonas aeruginosa; experiment: Antimicrobial activity against Pseudomonas aeruginosa 65.36-3 tracheal isolates from mechanically ventilated tuberculosis patient
[15] = test system: Pseudomonas aeruginosa; experiment: Antimicrobial activity against Pseudomonas aeruginosa 15H5 tracheal isolates from mechanically ventilated chronic respiratory insufficiency patient
[16] = test system: Pseudomonas aeruginosa; experiment: Antimicrobial activity against Pseudomonas aeruginosa 65.33-2 tracheal isolates from mechanically ventilated tuberculosis patient
[17] = test system: Pseudomonas aeruginosa; experiment: Antimicrobial activity against Pseudomonas aeruginosa 2A9 tracheal isolates from mechanically ventilated tuberculosis patient
[18] = test system: Pseudomonas aeruginosa; experiment: Antimicrobial activity against Pseudomonas aeruginosa 5F2 tracheal isolates from mechanically ventilated chronic respiratory insufficiency patient
[19] = test system: Pseudomonas aeruginosa; experiment: Antimicrobial activity against Pseudomonas aeruginosa 65.33-4 tracheal isolates from mechanically ventilated tuberculosis patient
[20] = test system: Pseudomonas aeruginosa; experiment: Antimicrobial activity against Pseudomonas aeruginosa 65.68-4 tracheal isolates from mechanically ventilated tuberculosis patient
[21] = test system: Pseudomonas aeruginosa; experiment: Antimicrobial activity against Pseudomonas aeruginosa 65.68-3 tracheal isolates from mechanically ventilated tuberculosis patient
[22] = test system: Pseudomonas aeruginosa; experiment: Antimicrobial activity against Pseudomonas aeruginosa 65.38-3 tracheal isolates from mechanically ventilated tuberculosis patient
[23] = test system: Pseudomonas aeruginosa; experiment: Antimicrobial activity against Pseudomonas aeruginosa 65.36-2 tracheal isolates from mechanically ventilated tuberculosis patient
[24] = test system: Pseudomonas aeruginosa; experiment: Antimicrobial activity against Pseudomonas aeruginosa 2A5 tracheal isolates from mechanically ventilated tuberculosis patient
[25] = test system: Pseudomonas aeruginosa; experiment: Antimicrobial activity against Pseudomonas aeruginosa 29G6 tracheal isolates from mechanically ventilated chronic respiratory insufficiency patient
[26] = test system: Pseudomonas aeruginosa; experiment: Antimicrobial activity against Pseudomonas aeruginosa 19D9 tracheal isolates from mechanically ventilated chronic respiratory insufficiency patient
[27] = test system: Pseudomonas aeruginosa; experiment: Antimicrobial activity against Pseudomonas aeruginosa 29G7 tracheal isolates from mechanically ventilated chronic respiratory insufficiency patient
[28] = test system: Pseudomonas aeruginosa; experiment: Antimicrobial activity against Pseudomonas aeruginosa 19E9 tracheal isolates from mechanically ventilated chronic respiratory insufficiency patient
[29] = test system: Pseudomonas aeruginosa; experiment: Antimicrobial activity against Pseudomonas aeruginosa 5G3 tracheal isolates from mechanically ventilated chronic respiratory insufficiency patient
[30] = test system: Pseudomonas aeruginosa; experiment: Antimicrobial activity against Pseudomonas aeruginosa 22D9 tracheal isolates from mechanically ventilated chronic respiratory insufficiency patient
[31] = test system: Pseudomonas aeruginosa; experiment: Antimicrobial activity against Pseudomonas aeruginosa 5F8 tracheal isolates from mechanically ventilated chronic respiratory insufficiency patient
[32] = test system: Pseudomonas aeruginosa; experiment: Antimicrobial activity against Pseudomonas aeruginosa 9B2 tracheal isolates from mechanically ventilated chronic respiratory insufficiency patient
[33] = test system: Pseudomonas aeruginosa; experiment: Antimicrobial activity against Pseudomonas aeruginosa 15G2 tracheal isolates from mechanically ventilated chronic respiratory insufficiency patient
[34] = test system: Pseudomonas aeruginosa; experiment: Antimicrobial activity against Pseudomonas aeruginosa 19E2 tracheal isolates from mechanically ventilated chronic respiratory insufficiency patient
[35] = test system: Pseudomonas aeruginosa; experiment: Antimicrobial activity against Pseudomonas aeruginosa 19B6 tracheal isolates from mechanically ventilated chronic respiratory insufficiency patient
[36] = test system: Pseudomonas aeruginosa; experiment: Antimicrobial activity against Pseudomonas aeruginosa 12A7 tracheal isolates from mechanically ventilated chronic respiratory insufficiency patient
[37] = test system: Pseudomonas aeruginosa; experiment: Antimicrobial activity against Pseudomonas aeruginosa 19C7 tracheal isolates from mechanically ventilated chronic respiratory insufficiency patient
[38] = test system: Pseudomonas aeruginosa; experiment: Antimicrobial activity against Pseudomonas aeruginosa 8B11 tracheal isolates from mechanically ventilated chronic respiratory insufficiency patient
[39] = test system: Pseudomonas aeruginosa; experiment: Antimicrobial activity against Pseudomonas aeruginosa 19B3 tracheal isolates from mechanically ventilated chronic respiratory insufficiency patient
[40] = test system: Pseudomonas aeruginosa; experiment: Antimicrobial activity against Pseudomonas aeruginosa 2A6 tracheal isolates from mechanically ventilated tuberculosis patient
[41] = test system: Pseudomonas aeruginosa; experiment: Antimicrobial activity against Pseudomonas aeruginosa 8A2 tracheal isolates from mechanically ventilated chronic respiratory insufficiency patient
[42] = test system: Pseudomonas aeruginosa; experiment: Antimicrobial activity against Pseudomonas aeruginosa 16D5 tracheal isolates from mechanically ventilated chronic respiratory insufficiency patient
[43] = test system: Pseudomonas aeruginosa; experiment: Antimicrobial activity against Pseudomonas aeruginosa 10A9 tracheal isolates from mechanically ventilated chronic respiratory insufficiency patient
[44] = test system: Pseudomonas aeruginosa; experiment: Antimicrobial activity against Pseudomonas aeruginosa 65.36-1 tracheal isolates from mechanically ventilated tuberculosis patient
[45] = test system: Pseudomonas aeruginosa; experiment: Antimicrobial activity against Pseudomonas aeruginosa 3D1 tracheal isolates from mechanically ventilated chronic respiratory insufficiency patient
[46] = test system: Pseudomonas aeruginosa; experiment: Antimicrobial activity against Pseudomonas aeruginosa 2F6 tracheal isolates from mechanically ventilated tuberculosis patient
[47] = test system: Pseudomonas aeruginosa; experiment: Antimicrobial activity against Pseudomonas aeruginosa 3D10 tracheal isolates from mechanically ventilated chronic respiratory insufficiency patient
[48] = test system: Pseudomonas aeruginosa; experiment: Antimicrobial activity against Pseudomonas aeruginosa 9A7 tracheal isolates from mechanically ventilated chronic respiratory insufficiency patient
[49] = test system: Pseudomonas aeruginosa; experiment: Antimicrobial activity against Pseudomonas aeruginosa 29F6 tracheal isolates from mechanically ventilated chronic respiratory insufficiency patient
[50] = test system: Pseudomonas aeruginosa; experiment: Antimicrobial activity against Pseudomonas aeruginosa 10B3 tracheal isolates from mechanically ventilated chronic respiratory insufficiency patient
[51] = test system: Pseudomonas aeruginosa; experiment: Antimicrobial activity against Pseudomonas aeruginosa 1B9 tracheal isolates from mechanically ventilated tuberculosis patient
[52] = test system: Pseudomonas aeruginosa; experiment: Antimicrobial activity against Pseudomonas aeruginosa 65.33-1 tracheal isolates from mechanically ventilated tuberculosis patient
[53] = test system: Pseudomonas aeruginosa; experiment: Antimicrobial activity against Pseudomonas aeruginosa P21.21 tracheal isolates from mechanically ventilated tuberculosis patient
[54] = test system: Pseudomonas aeruginosa; experiment: Antimicrobial activity against Pseudomonas aeruginosa P21.23 tracheal isolates from mechanically ventilated tuberculosis patient
[55] = test system: Pseudomonas aeruginosa; experiment: Antimicrobial activity against Pseudomonas aeruginosa 65.18-4 tracheal isolates from mechanically ventilated tuberculosis patient
[56] = test system: Pseudomonas aeruginosa; experiment: Antimicrobial activity against Pseudomonas aeruginosa 2A3 tracheal isolates from mechanically ventilated tuberculosis patient
[57] = test system: Pseudomonas aeruginosa; experiment: Antimicrobial activity against Pseudomonas aeruginosa 3B1 tracheal isolates from mechanically ventilated tuberculosis patient
[58] = test system: Pseudomonas aeruginosa; experiment: Antimicrobial activity against Pseudomonas aeruginosa 65.68-1 tracheal isolates from mechanically ventilated tuberculosis patient
[59] = test system: Pseudomonas aeruginosa; experiment: Antimicrobial activity against Pseudomonas aeruginosa 2A2 tracheal isolates from mechanically ventilated tuberculosis patient

GENTAMICIN was tested, and the Activity [1] was “Active”, the Activity [2] was “Active” and the Activity [3] was “Active”. The Activity [4] was “inactive”, the Activity [5] was “Active” and the Activity [6] was “Active”. The Activity [7] was “Active”, the Activity [8] was “Active” and the Activity [9] was “Active”. For the same compound, the Activity [10] was “Active”, the Activity [11] was “Active” and the Activity [12] was “Active”. The Activity [13] was “Active”, the Activity [14] was “inactive” and the Activity [15] was “Active”. For the same compound, the Activity [16] was “Active”, the Activity [17] was “inactive” and the Activity [18] was “Active”. For the same compound, the Activity [19] was “Active”, the Activity [20] was “Active” and the Activity [21] was “inactive”. For the same compound, the Activity [22] was “inactive”, the Activity [23] was “inactive” and the Activity [24] was “Active”. For the same compound, the Activity [25] was “Active”, the Activity [26] was “Active” and the Activity [27] was “Active”. The Activity [28] was “Active”, the Activity [29] was “Active” and the Activity [30] was “Active”. The Activity [31] was “Active”, the Activity [32] was “Active” and the Activity [33] was “Active”. For the same compound, the Activity [34] was “Active”, the Activity [35] was “Active” and the Activity [36] was “Active”. The Activity [37] was “Active”, the Activity [38] was “Active” and the Activity [39] was “Active”. For the same compound, the Activity [40] was “inactive”, the Activity [41] was “Active” and the Activity [42] was “Active”. The Activity [43] was “Active”, the Activity [44] was “inactive” and the Activity [45] was “Active”. The Activity [46] was “inactive”, the Activity [47] was “Active” and the Activity [48] was “Active”. The Activity [49] was “Active”, the Activity [50] was “Active” and the Activity [51] was “inactive”.
For `CO/N=C(\C(=O)N[C@@H]1C(=O)N2C(C(=O)[O-])=C(C[N+]3(C)CCCC3)CS[C@H]12)c1csc(N)n1`, the Activity [1] was “Active”, the Activity [52] was “Active” and the Activity [2] was “Active”. The Activity [3] was “Active”, the Activity [4] was “inactive” and the Activity [5] was “Active”. The Activity [6] was “Active”, the Activity [7] was “Active” and the Activity [8] was “Active”. The Activity [9] was “Active”, the Activity [10] was “Active” and the Activity [11] was “Active”. For the same compound, the Activity [12] was “Active”, the Activity [13] was “Active” and the Activity [15] was “Active”. For the same compound, the Activity [16] was “Active”, the Activity [18] was “Active” and the Activity [19] was “Active”. The Activity [20] was “Active”, the Activity [21] was “Active” and the Activity [23] was “Active”. For the same compound, the Activity [24] was “Active”, the Activity [25] was “Active” and the Activity [26] was “Active”. The Activity [27] was “Active”, the Activity [28] was “Active” and the Activity [29] was “Active”. For the same compound, the Activity [53] was “Active”, the Activity [54] was “Active” and the Activity [30] was “Active”. The Activity [31] was “Active”, the Activity [55] was “Active” and the Activity [56] was “Active”. The Activity [32] was “Active”, the Activity [33] was “Active” and the Activity [34] was “Active”. The Activity [35] was “Active”, the Activity [36] was “Active” and the Activity [37] was “Active”. For the same compound, the Activity [38] was “Active”, the Activity [57] was “Active” and the Activity [39] was “Active”. For the same compound, the Activity [41] was “Active”, the Activity [42] was “Active” and the Activity [43] was “Active”. The Activity [44] was “Active”, the Activity [45] was “Active” and the Activity [46] was “inactive”. The Activity [47] was “Active”, the Activity [48] was “Active” and the Activity [49] was “Active”. For the same compound, the Activity [50] was “Active”, the Activity [51] was “inactive” and the Activity [58] was “Active”. The Activity [59] was “Active”.
